Among the data in patent US9409915B2, “Substituted aza-bicyclic imidazole derivatives useful as TRPM8 receptor modulators” (Janssen Pharmaceutica NV, priority 2010, dated 2016) are inhibition and IC50 values, retold here.

By inhibition is commonly meant the relative decrease from the control value, in per cent. A word on the IC50: it is the concentration that gives 50% inhibition. The low end stands for higher potency, the high end for lower potency.

The target of this assay is canine TRPM8 (Canis lupus familiaris, UniProt Q1A7N1). As to the kind of experiment: In vitro canine TRPM8 functional assay (Ca2+-sensitive fluorescent dye, icilin activation). Type of assay: cell-based. The conditions noted are these: HEK293 cells stably expressing canine TRPM8, icilin-induced Ca2+ response; for IC50: eight-point concentration-response. The procedure: The functional activity of representative compounds of the formula (I) of the present invention was quantified by measuring changes in intracellular calcium concentration using a Ca^2+-sensitive fluorescent dye. The changes in fluorescent signal were monitored by a fluorescence plate reader, either a FLIPR™ (Molecular Devices) or FDSS (Hamamatsu).
HEK293 cells stably expressing canine TRPM8 were routinely grown as monolayers in Dulbecco's minimum essential medium supplemented with 10% FBS, 2 mM L-glutamine, 100 units/mL penicillin, 100 ug/mL streptomycin and 400 μg/mL G418. Cells were maintained in 5% CO2 at 37° C. At 24 hr prior to assay, cells were seeded in black wall, clear-base poly-D-lysine coated 384-well plates (BD Biosciences, NJ, USA) at a density of 5,000 cells per well in culture medium and grown overnight in 5% CO2 at 37° C. On assay day, growth media was removed, and cells were loaded with Calcium 3 Dye (Molecular Devices) for 35 min at 37° C., under 5% CO2 and then incubated for 25 min at room temperature and atmosphere. Subsequently, cells were tested for agonist-induced increases in intracellular Ca^2+ levels using FLIPR™ or FDSS. Cells were treated with compounds of the formula (I) at varying concentrations and intracellular Ca^2+ was measured for 5 min prior to the addition of icilin to each well to achieve a final concentration that produces an approximately 80% maximal response.
Maximal fluorescence intensity (FI) achieved upon addition of icilin was exported from the FLIPR™ or FDSS software and further analyzed using GraphPad Prism 3.02 (Graph Pad Software Inc., CA, U.S.A.). Basal FI was subtracted prior to normalizing data to percent of maximal response. Curves were generated using the average of quadruplicate wells for each data point using nonlinear regression of either sigmoidal dose response or sigmoidal dose response (variable slope). Finally, the EC50 and IC50 values were calculated with the best-fit curve determined by GraphPad Prism

Structures are written as SMILES. Structures can show the parent of a compound that is named as a salt.

canine TRPM8, sequence (Q1A7N1 1-1104): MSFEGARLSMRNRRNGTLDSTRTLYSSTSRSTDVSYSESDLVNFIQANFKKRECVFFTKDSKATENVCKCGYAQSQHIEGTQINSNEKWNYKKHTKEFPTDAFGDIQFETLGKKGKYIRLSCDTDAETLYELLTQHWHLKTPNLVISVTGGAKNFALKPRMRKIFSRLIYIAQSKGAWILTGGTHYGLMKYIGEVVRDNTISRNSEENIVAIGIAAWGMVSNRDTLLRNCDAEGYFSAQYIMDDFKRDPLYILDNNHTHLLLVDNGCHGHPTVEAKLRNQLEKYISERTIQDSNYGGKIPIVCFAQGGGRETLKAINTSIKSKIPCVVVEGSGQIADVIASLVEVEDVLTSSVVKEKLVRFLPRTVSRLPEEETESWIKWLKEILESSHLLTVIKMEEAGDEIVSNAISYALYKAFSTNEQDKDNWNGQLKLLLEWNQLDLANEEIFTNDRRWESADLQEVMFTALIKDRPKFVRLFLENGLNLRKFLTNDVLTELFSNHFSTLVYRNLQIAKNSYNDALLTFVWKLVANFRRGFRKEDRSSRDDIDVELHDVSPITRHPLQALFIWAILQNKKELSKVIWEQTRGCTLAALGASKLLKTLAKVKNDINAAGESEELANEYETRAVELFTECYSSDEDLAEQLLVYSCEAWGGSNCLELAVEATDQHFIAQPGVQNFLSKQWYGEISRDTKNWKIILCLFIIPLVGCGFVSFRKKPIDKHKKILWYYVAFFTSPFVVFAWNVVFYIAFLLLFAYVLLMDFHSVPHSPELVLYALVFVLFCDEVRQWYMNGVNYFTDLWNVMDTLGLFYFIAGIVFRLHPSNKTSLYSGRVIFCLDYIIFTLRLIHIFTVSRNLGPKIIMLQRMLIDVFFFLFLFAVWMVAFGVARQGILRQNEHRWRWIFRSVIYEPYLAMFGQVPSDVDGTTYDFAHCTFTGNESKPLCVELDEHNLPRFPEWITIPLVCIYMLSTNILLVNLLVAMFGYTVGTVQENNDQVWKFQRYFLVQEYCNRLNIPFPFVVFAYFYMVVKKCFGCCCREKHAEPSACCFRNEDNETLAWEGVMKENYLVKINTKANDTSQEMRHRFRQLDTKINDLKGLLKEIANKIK

In turn, `CN(C)CCOc1nc(-c2ccccc2C(F)(F)F)cc2nc(-c3c(Cl)c(C(C)(C)C)nn3C)[nH]c12` [Compound 53, {2-[2-(5-tert-Butyl-4-chloro-2-methyl-2H-pyrazol-3-yl)-6-(2-trifluoromethyl-phenyl)-3H-imidazo[4,5-c]pyridin-4-yloxy]-ethyl}-dimethyl-amine] displayed an IC50 of 0.027 µM. For the same compound, the inhibition at 0.2 µM (0.2 μM compound) came to 99%. Take `Cn1nc(C(C)(C)C)c(Cl)c1-c1nc2cc(-c3ccccc3Cl)nc(OCCN3CCOCC3)c2[nH]1` [Compound 54, 2-(5-tert-Butyl-4-chloro-2-methyl-2H-pyrazol-3-yl)-6-(2-chloro-phenyl)-4-(2-morpholin-4-yl-ethoxy)-3H-imidazo[4,5-c]pyridine]: 0.0042 µM corresponded to half-maximal inhibition (IC50). Also, for the setting “0.2 μM compound”, the inhibition at 0.2 µM is 99%. In turn, `CN1CCN(CCOc2nc(-c3ccccc3Cl)cc3nc(-c4c(Cl)c(C(C)(C)C)nn4C)[nH]c23)CC1` [Compound 55, 2-(5-tert-Butyl-4-chloro-2-methyl-2H-pyrazol-3-yl)-6-(2-chloro-phenyl)-4-[2-(4-methyl-piperazin-1-yl)-ethoxy]-3H-imidazo[4,5-c]pyridine] returned an IC50 of 0.054 µM. The inhibition at 0.2 µM (HEK293, 0.2 μM compound) came out at 95%. With `CN(C)CCOc1nc(-c2ccccc2Cl)cc2nc(-c3c(Cl)c(C(C)(C)C)nn3C)[nH]c12` [Compound 56, {2-[2-(5-tert-Butyl-4-chloro-2-methyl-2H-pyrazol-3-yl)-6-(2-chloro-phenyl)-3H-imidazo[4,5-c]pyridin-4-yloxy]-ethyl}-dimethyl-amine], the IC50 was determined as 0.024 µM. Further, where the note is “0.2 μM compound”, the inhibition at 0.2 µM stood at 99%. For the compound `Cn1nc(C(C)(C)C)c(Cl)c1-c1nc2cc(-c3ccccc3C(F)(F)F)nc(OCCO)c2[nH]1` [Compound 57, 2-[2-(5-tert-Butyl-4-chloro-2-methyl-2H-pyrazol-3-yl)-6-(2-trifluoromethyl-phenyl)-3H-imidazo[4,5-c]pyridin-4-yloxy]-ethanol], it took 0.0016 µM to reach half-maximal inhibition (IC50). Further, the inhibition at 0.2 µM (0.2 μM compound) was found to be 101%. Taken in the same sequence, the figures for `Cn1nc(C(C)(C)C)c(Cl)c1-c1nc2cc(-c3ccccc3Cl)nc(OCCO)c2[nH]1` [Compound 58, 2-[2-(5-tert-Butyl-4-chloro-2-methyl-2H-pyrazol-3-yl)-6-(2-chloro-phenyl)-3H-imidazo[4,5-c]pyridin-4-yloxy]-ethanol] were 0.002 µM and 101%. Regarding `COc1cc(-c2ccccc2C(F)(F)F)nc2nc(-c3onc(C(C)(C)C)c3C#N)[nH]c12` [Compound 70, 3-tert-Butyl-5-[7-methoxy-5-(2-trifluoromethyl-phenyl)-1H-imidazo[4,5-b]pyridin-2-yl]-isoxazole-4-carbonitrile methanesulfonic acid salt], the inhibition at 0.2 µM (0.2 μM compound) is 36%. As for `Cn1nc(C(C)(C)C)c(Cl)c1-c1nc2cc(-c3ccccc3C(F)(F)F)nc(Cl)c2[nH]1` [Compound 71, 2-(5-tert-Butyl-4-chloro-2-methyl-2H-pyrazol-3-yl)-4-chloro-6-(2-trifluoromethyl-phenyl)-3H-imidazo[4,5-c]pyridine Hydrochloride], inhibition was half-maximal at 0.0088 µM (IC50). For the same compound, the inhibition at 0.2 µM (0.2 μM compound) came out at 100%. `Cn1nc2c(c1-c1nc3c(Cl)nc(-c4ccccc4C(F)(F)F)cc3[nH]1)CCC21CCCCC1` [Compound 72, 3′-{4-Chloro-6-[2-(trifluoromethyl)phenyl]-1H-imidazo[4,5-c]pyridin-2-yl}-2′-methyl-4′,5′-dihydro-2′H-spiro[cyclohexane-1,6′-cyclopenta[c]pyrazole] hydrochloride] gave an IC50 of 0.063 µM. Further, the inhibition at 0.2 µM (0.2 μM compound) was found to be 95%. On to `CC(C)(C)c1cc(-c2nc3cc(-c4ccccc4C(F)(F)F)nc(Cl)c3[nH]2)on1` [Compound 73, 2-(3-tert-Butyl-isoxazol-5-yl)-4-chloro-6-(2-trifluoromethyl-phenyl)-3H-imidazo[4,5-c]pyridine hydrochloride], for which the IC50 was found to be 0.028 µM. Besides, the inhibition at 0.2 µM (0.2 μM compound) is 100%. For `Cn1nc(C(C)(C)C)cc1-c1nc2cc(-c3ccccc3C(F)(F)F)nc(Cl)c2[nH]1` [Compound 74, 2-(5-tert-Butyl-2-methyl-2H-pyrazol-3-yl)-4-chloro-6-(2-trifluoromethyl-phenyl)-3H-imidazo[4,5-c]pyridine hydrochloride], the IC50 was 0.096 µM. For the same compound, where the note is “0.2 μM compound”, the inhibition at 0.2 µM came out at 93%. For `Cn1nc(C(C)(C)C)c(C#N)c1-c1nc2cc(-c3ccccc3C(F)(F)F)nc(Cl)c2[nH]1` [Compound 75, 3-tert-Butyl-5-[4-chloro-6-(2-trifluoromethyl-phenyl)-3H-imidazo[4,5-c]pyridin-2-yl]-1-methyl-1H-pyrazole-4-carbonitrile Hydrochloride], in that order: 0.024 µM and 100%. In turn, `COCCOc1cc(-c2ccccc2C(F)(F)F)nc2nc(-c3c(Cl)c(C(C)(C)C)nn3C)[nH]c12` [Compound 76, 2-(5-tert-Butyl-4-chloro-2-methyl-2H-pyrazol-3-yl)-7-(2-methoxy-ethoxy)-5-(2-trifluoromethyl-phenyl)-1H-imidazo[4,5-b]pyridine methanesulfonic acid salt] registered an IC50 of 0.0058 µM. The inhibition at 0.2 µM (HEK293, 0.2 μM compound) is 98%. In the case of `COc1nc(-c2ccccc2C(F)(F)F)cc2nc(-c3c(F)c(C(C)(C)C)nn3C)[nH]c12` [Compound 78, 2-(5-tert-Butyl-4-fluoro-2-methyl-2H-pyrazol-3-yl)-4-methoxy-6-(2-trifluoromethyl-phenyl)-3H-imidazo[4,5-c]pyridine methanesulfonic acid salt], the IC50 is 0.016 µM. Besides, under “0.2 μM compound”, the inhibition at 0.2 µM turned out to be 100%. Compound `COc1c(C(C)(C)C)nn(C)c1-c1nc2cc(-c3ccccc3C(F)(F)F)nc(OC)c2[nH]1` [Compound 79, 2-(5-tert-Butyl-4-methoxy-2-methyl-2H-pyrazol-3-yl)-4-methoxy-6-(2-trifluoromethyl-phenyl)-3H-imidazo[4,5-c]pyridine methanesulfonic acid salt] showed an IC50 of 0.02 µM. For the setting “0.2 μM compound”, the inhibition at 0.2 µM worked out at 101%. On to `COc1nc(-c2ccccc2C(F)(F)F)cc2nc(-c3cc(C(C)(C)C)nn3C)[nH]c12` [Compound 80, 2-(5-tert-Butyl-2-methyl-2H-pyrazol-3-yl)-4-methoxy-6-(2-trifluoromethyl-phenyl)-3H-imidazo[4,5-c]pyridine methanesulfonic acid salt], for which the IC50 was determined as 0.042 µM. Moreover, the inhibition at 0.2 µM (0.2 μM compound) was 100%. Taken in the same sequence, the figures for `COc1cc(-c2ccccc2C(F)(F)F)nc2nc(-c3cc(C(C)(C)C)nn3C)[nH]c12` [Compound 81, 2-(5-tert-Butyl-2-methyl-2H-pyrazol-3-yl)-7-methoxy-5-(2-trifluoromethyl-phenyl)-1H-imidazo[4,5-b]pyridine hydrochloride] were 0.12 µM and 67%. Regarding `Cn1nc(C(C)(C)C)c(C#N)c1-c1nc2cc(-c3ccccc3Cl)nc(OCCO)c2[nH]1` [Compound 83, 3-tert-Butyl-5-[6-(2-chloro-phenyl)-4-(2-hydroxy-ethoxy)-3H-imidazo[4,5-c]pyridin-2-yl]-1-methyl-1H-pyrazole-4-carbonitrile], the IC50 was determined as 0.0018 µM. In addition, the inhibition at 0.2 µM (0.2 μM compound) was determined as 99%.

For the compound `Cn1nc(C(C)(C)C)c(C#N)c1-c1nc2cc(-c3ccccc3C(F)(F)F)nc(OCCO)c2[nH]1` [Compound 84, 3-tert-Butyl-5-[4-(2-hydroxy-ethoxy)-6-(2-trifluoromethyl-phenyl)-3H-imidazo[4,5-c]pyridin-2-yl]-1-methyl-1H-pyrazole-4-carbonitrile], the IC50 came out at 0.0019 µM. The inhibition at 0.2 µM (0.2 μM compound) amounted to 100%. With `Cn1nc(C(C)(C)C)c(C#N)c1-c1nc2cc(-c3ccccc3Cl)nc(OCC(=O)O)c2[nH]1` [Compound 85, [2-(5-tert-Butyl-4-cyano-2-methyl-2H-pyrazol-3-yl)-6-(2-chloro-phenyl)-3H-imidazo[4,5-c]pyridin-4-yloxy]-acetic acid], the inhibition at 0.2 µM (0.2 μM compound) turned out to be 32%. `Cn1nc(C(C)(C)C)c(C#N)c1-c1nc2cc(-c3ccccc3C(F)(F)F)nc(OCC(=O)O)c2[nH]1` [Compound 86, [2-(5-tert-Butyl-4-cyano-2-methyl-2H-pyrazol-3-yl)-6-(2-trifluoromethyl-phenyl)-3H-imidazo[4,5-c]pyridin-4-yloxy]-acetic acid]: the inhibition at 0.2 µM (0.2 μM compound) was found to be 49%. For the compound `Cn1nc(C(C)(C)C)c(Cl)c1-c1nc2cc(-c3ccccc3Cl)nc(OCC(=O)O)c2[nH]1` [Compound 87, [2-(5-tert-Butyl-4-chloro-2-methyl-2H-pyrazol-3-yl)-6-(2-chloro-phenyl)-3H-imidazo[4,5-c]pyridin-4-yloxy]-acetic acid], inhibition was half-maximal at 0.131 µM (IC50). Also, where the note is “HEK293, 0.2 μM compound”, the inhibition at 0.2 µM amounted to 72%.
